Data from patent US4562287A, “2-(4-Biphenylyl)-4-hexenoic acid and derivatives thereof having anti-inflammatory activity” (priority 1983, dated 1985).
Where a name gives a salt, the structure may show the parent alone.

How the values were obtained:
[1] = system: Carragenine induced edema; assay: Anti-inflammatory activity on carragenine induced edema (Table 11); format: in vivo; settings: for % inhibition: 50 mg/Kg p.o.
SH Groups in serum = assay: SH groups in serum (Table 8); format: in vivo; settings: arthritis checks 70, 77
Joint's diameter = Joint's diameter in arthritis (Table 7); format: in vivo; set-up: unit not given here
[2] = system: Freund's adjuvant induced arthritis; assay: Freund's adjuvant induced arthritis, edema inhibition
[3] = system: Carragenine induced edema; assay: Carragenine induced edema, first test (Table 2); format: in vivo
Excerpt: |ANTI-INFLAMMATORY ACTIVITY. |Carragenine induced edema, first test.

[4] = system: erytrocytes sedimetation rate (ESR); assay: Erytrocytes sedimetation rate (ESR) (Table 8); format: in vivo; set-up: unit not given here; settings: arthritis checks 41, 56
[5] = system: Cotton-pellets induced granuloma; assay: Cotton-pellets induced granuloma; format: in vivo; settings: 200 mg/Kg p.o.
Excerpt: | Cotton-pellets induced granuloma.

ulcerogenic effect = assay: Ulcerogenic effect; format: in vivo; settings: dose 50 mg
Kaolin edema = assay: Edema induced by different substances: kaolin (Table 3); format: in vivo
Excerpt: (§1) |Edema induced by different substances.

[6] = system: capillary permeability (Serotonin); settings: 200 mg/Kg p.o., checks 18.16
Yeast edema = assay: Edema induced by different substances: yeast (Table 3); format: in vivo
Excerpt: |Edema induced by different substances. | % edema inhibition

[7] = system: capillary permeability (Histamine); assay: Effect on the capillary permeability, histamine; format: in vivo; settings: 200 mg/Kg p.o., checks 21.33, 200 mg/kg
Excerpt: (§2) |Effect on the capillary permeability

Carragenine edema = assay: Edema induced by different substances: carragenine (Table 3); format: in vivo
Excerpt: as §1

[8] = system: capillary permeability (Dextran); assay: Effect on the capillary permeability, dextran; format: in vivo; settings: 200 mg/Kg p.o., checks 14.83, 200 mg/kg
Excerpt: as §2

Serotonin edema = assay: Edema induced by different substances: serotonin (Table 3); format: in vivo
Excerpt: as §1

Dextrose edema = assay: Edema induced by different substances: dextrose (Table 3); format: in vivo
Excerpt: as §1

[9] = system: Carragenine induced edema; assay: Activity on carragenine induced edema (Table 9); format: in vivo
Excerpt: |Activity on carragenine induced edema.

in vivo = settings: po, rat, p.o., read-out: DL50 (the source's name)
[10] = 20 mg/Kg p.o., 1 week, arthritis checks 0.48, 0.38
[11] = 20 mg/Kg p.o., 2 weeks, arthritis checks 0.71, 0.75
[12] = 20 mg/Kg p.o., 3 weeks, arthritis checks 0.81, 0.79
[13] = 20 mg/Kg p.o., 4 weeks, arthritis checks 0.85, 0.89
[14] = 40 mg/Kg p.o., 1 week, arthritis checks 0.48, 0.38
[15] = 40 mg/Kg p.o., 2 weeks, arthritis checks 0.71, 0.75
[16] = 40 mg/Kg p.o., 3 weeks, arthritis checks 0.81, 0.79
[17] = 40 mg/Kg p.o., 4 weeks, arthritis checks 0.85, 0.89

Structure (SMILES): CC(C)Cc1ccc(C(C)C(=O)O)cc1 (centres unmarked) [Ibuprofen]
- % inhibition [1]: 40%
- SH groups diminution in % (SH Groups in serum; 20 mg/Kg p.o.): 78%
- SH groups diminution in % (SH Groups in serum; 40 mg/Kg p.o.): 73%
- Joint's diameter (Joint's diameter; [10]): 0.31
- Joint's diameter (Joint's diameter; [11]): 0.53
- Joint's diameter (Joint's diameter; [12]): 0.65
- Joint's diameter (Joint's diameter; [13]): 0.81
- Joint's diameter (Joint's diameter; [14]): 0.35
- Joint's diameter (Joint's diameter; [15]): 0.60
- Joint's diameter (Joint's diameter; [16]): 0.75
- Joint's diameter (Joint's diameter; [17]): 0.80
- Edema inhibition % ([2]; 20 mg/Kg p.o., 2 days): 34%
- Edema inhibition % ([2]; 20 mg/Kg p.o., 4 days): 29%
- Edema inhibition % ([2]; 20 mg/Kg p.o., 8 days): 19%
- Edema inhibition % ([2]; 20 mg/Kg p.o., 12 days): 24%
- Edema inhibition % ([2]; 20 mg/Kg p.o., 16 days): 14%
- Edema inhibition % ([2]; 20 mg/Kg p.o., 24 days): 4%
- Edema inhibition % ([2]; 40 mg/Kg p.o., 2 days): 32%
- Edema inhibition % ([2]; 40 mg/Kg p.o., 4 days): 17%
- Edema inhibition % ([2]; 40 mg/Kg p.o., 8 days): 26%
- Edema inhibition % ([2]; 40 mg/Kg p.o., 12 days): 19%
- Edema inhibition % ([2]; 40 mg/Kg p.o., 16 days): 27%
- Edema inhibition % ([2]; 40 mg/Kg p.o., 20 days): 19%
- Edema inhibition % ([2]; 40 mg/Kg p.o., 24 days): 9%
- % inhibition ([3]; 12.5 mg/Kg p.o.): 27%
- % inhibition ([3]; 25 mg/Kg p.o.): 33%
- % inhibition ([3]; 50 mg/Kg p.o.): 47%
- % inhibition ([3]; 100 mg/Kg p.o.): 54%
- E.S.R. ([4]; 20 mg/Kg p.o.): 58
- E.S.R. ([4]; 40 mg/Kg p.o.): 30

Structure (SMILES): CCCCC1C(=O)N(c2ccccc2)N(c2ccc(O)cc2)C1=O (centres unmarked) [Oxyphenbutazone, reference compound]
- % inhibition [1]: 41%
- % inhibition [5]: 24%

Structure (SMILES): CC(=O)Oc1ccccc1C(=O)O [Acetylsalicylic acid, reference compound]
- % inhibition [1]: 23%

Structure (SMILES): CC=CCC(C(=O)O)c1ccc(-c2ccccc2)cc1 (single isomer, unassigned) [SCR 153, Triethanolamine salt of dextrogyre form]
- anti-inflammatory effect compared with 5 mg of indomethacin ([1]; 50 mg SCR 153 vs 5 mg indomethacin): near equal to the one obtained with 5 mg of indomethacin
- % inhibition [1]: 37%
- SH groups diminution in % (SH Groups in serum; 20 mg/Kg p.o.): 79%
- SH groups diminution in % (SH Groups in serum; 40 mg/Kg p.o.): 48%
- Joint's diameter (Joint's diameter; [10]): 0.46
- Joint's diameter (Joint's diameter; [11]): 0.61
- Joint's diameter (Joint's diameter; [12]): 0.62
- Joint's diameter (Joint's diameter; [13]): 0.73
- Joint's diameter (Joint's diameter; [14]): 0.24
- Joint's diameter (Joint's diameter; [15]): 0.39
- Joint's diameter (Joint's diameter; [16]): 0.44
- Joint's diameter (Joint's diameter; [17]): 0.52
- Edema inhibition % ([2]; 20 mg/Kg p.o., 2 days): 40%
- Edema inhibition % ([2]; 20 mg/Kg p.o., 4 days): 24%
- Edema inhibition % ([2]; 20 mg/Kg p.o., 8 days): 52%
- Edema inhibition % ([2]; 20 mg/Kg p.o., 12 days): 49%
- Edema inhibition % ([2]; 20 mg/Kg p.o., 16 days): 30%
- Edema inhibition % ([2]; 20 mg/Kg p.o., 20 days): 22%
- Edema inhibition % ([2]; 20 mg/Kg p.o., 24 days): 10%
- Edema inhibition % ([2]; 40 mg/Kg p.o., 2 days): 60%
- Edema inhibition % ([2]; 40 mg/Kg p.o., 4 days): 40%
- Edema inhibition % ([2]; 40 mg/Kg p.o., 8 days): 56%
- Edema inhibition % ([2]; 40 mg/Kg p.o., 12 days): 61%
- Edema inhibition % ([2]; 40 mg/Kg p.o., 16 days): 59%
- Edema inhibition % ([2]; 40 mg/Kg p.o., 20 days): 56%
- Edema inhibition % ([2]; 40 mg/Kg p.o., 24 days): 55%
- % inhibition ([3]; 12.5 mg/Kg p.o.): 24%
- % inhibition ([3]; 25 mg/Kg p.o.): 29%
- % inhibition ([3]; 50 mg/Kg p.o.): 45%
- % inhibition ([3]; 100 mg/Kg p.o.): 53%
- ulcerogenic effect (ulcerogenic effect): it is doubtful that above dose (50 mg) of SCR 153 could have any ulcerogenic effect
- E.S.R. ([4]; 20 mg/Kg p.o.): 59
- E.S.R. ([4]; 40 mg/Kg p.o.): 32

Structure (SMILES): CC=CCC(C(=O)O)c1ccc(-c2ccccc2)cc1 (single isomer, unassigned; (+)) [SCR 152, (+) 2-(4-biphenylyl)-4-hexenoic acid]
- % edema inhibition (Kaolin edema; 50 mg/Kg p.o., 50 mg/kg): 19%
- % edema inhibition (Kaolin edema; 100 mg/Kg p.o., 100 mg/kg): 40%
- % edema inhibition (Kaolin edema; 200 mg/Kg p.o., 200 mg/kg): 40%
- Effect on the capillary permeability, .0. m.micron [6]: 17.71 m.micron
- % inhibition [1]: 31%
- anti-inflammatory effect (in words) ([1]; dose of 50 mg): rather good anti-inflammatory effect
- % edema inhibition (Yeast edema; 50 mg/Kg p.o.): 13%
- % edema inhibition (Yeast edema; 100 mg/Kg p.o., 100 mg/kg): 25%
- % edema inhibition (Yeast edema; 200 mg/Kg p.o., 200 mg/kg): 17%
- ulcerogenic effect (ulcerogenic effect): exhibits none ulcerogenic effect
- Effect on the capillary permeability, .0. m.micron [7]: 21.57 m.micron
- % edema inhibition (Carragenine edema; 50 mg/Kg p.o., 50 mg/kg): 54%
- % edema inhibition (Carragenine edema; 100 mg/Kg p.o., 100 mg/kg): 52%
- % edema inhibition (Carragenine edema; 200 mg/Kg p.o., 200 mg/kg): 66%
- Effect on the capillary permeability, .0. m.micron [8]: 8.00 m.micron
- % inhibition [5]: 12%
- % edema inhibition (Serotonin edema; 50 mg/Kg p.o., 50 mg/kg): 3%
- % edema inhibition (Serotonin edema; 100 mg/Kg p.o., 100 mg/kg): 3%
- % edema inhibition (Serotonin edema; 200 mg/Kg p.o., 200 mg/kg): 17%
- % edema inhibition (Dextrose edema; 50 mg/Kg p.o., 50 mg/kg): 12%
- % edema inhibition (Dextrose edema; 100 mg/Kg p.o., 100 mg/kg): 39%
- % edema inhibition (Dextrose edema; 200 mg/Kg p.o., 200 mg/kg): 45%

Structure (SMILES): CCCCC1C(=O)N(c2ccccc2)N(c2ccccc2)C1=O [PHENYL-BUTAZONE, phenylbutazone, reference compound]
- % edema inhibition (Kaolin edema; 50 mg/Kg p.o.): 41%
- % edema inhibition (Kaolin edema; 100 mg/Kg p.o.): 40%
- % edema inhibition (Kaolin edema; 200 mg/Kg p.o.): 53%
- % inhibition ([3]; 75 mg/Kg p.o.): 43%
- % inhibition ([3]; 150 mg/Kg p.o.): 46%
- % edema inhibition (Yeast edema; 50 mg/Kg p.o.): 7%
- % edema inhibition (Yeast edema; 100 mg/Kg p.o.): 23%
- % edema inhibition (Yeast edema; 200 mg/Kg p.o.): 18%
- % edema inhibition (Carragenine edema; 50 mg/Kg p.o.): 13%
- % edema inhibition (Carragenine edema; 100 mg/Kg p.o.): 32%
- % edema inhibition (Carragenine edema; 200 mg/Kg p.o.): 61%
- % edema inhibition (Serotonin edema; 50 mg/Kg p.o.): 24%
- % edema inhibition (Serotonin edema; 100 mg/Kg p.o.): 12%
- % edema inhibition (Serotonin edema; 200 mg/Kg p.o.): 25%
- % edema inhibition (Dextrose edema; 50 mg/Kg p.o.): 0%
- % edema inhibition (Dextrose edema; 100 mg/Kg p.o.): 0%
- % edema inhibition (Dextrose edema; 200 mg/Kg p.o.): 18%

Structure (SMILES): CC=CCC(C(=O)O)c1ccc(-c2ccc(Cl)cc2)cc1 (racemic) [SCR 158, 2-[4-biphenylyl-(4' chloro)]4-hexenoic acid]
- Inhibition % ([9]; 56 mg/Kg p.o.): 0%
- Inhibition % ([9]; 85 mg/Kg p.o.): 16%
- Inhibition % ([9]; 127 mg/Kg p.o.): 14%
- LD50 (in vivo): 940 mg/kg

Structure (SMILES): CC=CCC(C(=O)O)c1ccc(-c2ccccc2)cc1 (single isomer, unassigned; (-)) [SCR 156, (-) 2-(4-biphenylyl)-4-hexenoic acid]
- % edema inhibition (Kaolin edema; 50 mg/Kg p.o., 50 mg/kg): 32%
- % edema inhibition (Kaolin edema; 100 mg/Kg p.o., 100 mg/kg): 26%
- % edema inhibition (Kaolin edema; 200 mg/Kg p.o., 200 mg/kg): 28%
- Effect on the capillary permeability, .0. m.micron [6]: 16.43 m.micron
- % edema inhibition (Yeast edema; 50 mg/Kg p.o.): 13%
- % edema inhibition (Yeast edema; 100 mg/Kg p.o., 100 mg/kg): 5%
- % edema inhibition (Yeast edema; 200 mg/Kg p.o., 200 mg/kg): 7%
- Effect on the capillary permeability, .0. m.micron [7]: 21.00 m.micron
- % edema inhibition (Carragenine edema; 50 mg/Kg p.o., 50 mg/kg): 9%
- % edema inhibition (Carragenine edema; 100 mg/Kg p.o., 100 mg/kg): 31%
- % edema inhibition (Carragenine edema; 200 mg/Kg p.o., 200 mg/kg): 23%
- Effect on the capillary permeability, .0. m.micron [8]: 13.58 m.micron
- % inhibition [5]: 11%
- % edema inhibition (Serotonin edema; 50 mg/Kg p.o., 50 mg/kg): 0%
- % edema inhibition (Serotonin edema; 100 mg/Kg p.o., 100 mg/kg): 13%
- % edema inhibition (Serotonin edema; 200 mg/Kg p.o., 200 mg/kg): 0%
- % edema inhibition (Dextrose edema; 50 mg/Kg p.o., 50 mg/kg): 14%
- % edema inhibition (Dextrose edema; 100 mg/Kg p.o., 100 mg/kg): 5%
- % edema inhibition (Dextrose edema; 200 mg/Kg p.o., 200 mg/kg): 12%
